Data published in ChEMBL document CHEMBL1152307, “Antimycobacterial and H1-antihistaminic activity of 2-substituted piperidine derivatives” (Bioorg Med Chem, 2008).
Values after ≈ are worked out from the molar mass of the structure shown.

Assays:
[1] = Cytotoxicity against HEK293 cells after 72 hrs by MTT assay; type: cell-based; details: human, read-out: LC50
[2] = tested on: Mycobacterium tuberculosis; experiment: Antimycobacterial activity against Mycobacterium tuberculosis H37Rv at 6.25 ug/ml after 4 days by microplate alamar blue assay; type: functional; details: 96 h
[3] = tested on: Mycobacterium tuberculosis; experiment: Antimycobacterial activity against Mycobacterium tuberculosis H37Rv after 4 days by microplate alamar blue assay; type: functional; details: 96 h
[4] = biological target: Histamine H1 receptor (Cavia porcellus) (UniProt P31389); experiment: Antagonist activity at guinea pig ileum histamine H1 receptor at 0.3 x 10'4 M; type: functional, tissue-based
Histamine H1 receptor (Cavia porcellus), sequence (P31389 whole entry): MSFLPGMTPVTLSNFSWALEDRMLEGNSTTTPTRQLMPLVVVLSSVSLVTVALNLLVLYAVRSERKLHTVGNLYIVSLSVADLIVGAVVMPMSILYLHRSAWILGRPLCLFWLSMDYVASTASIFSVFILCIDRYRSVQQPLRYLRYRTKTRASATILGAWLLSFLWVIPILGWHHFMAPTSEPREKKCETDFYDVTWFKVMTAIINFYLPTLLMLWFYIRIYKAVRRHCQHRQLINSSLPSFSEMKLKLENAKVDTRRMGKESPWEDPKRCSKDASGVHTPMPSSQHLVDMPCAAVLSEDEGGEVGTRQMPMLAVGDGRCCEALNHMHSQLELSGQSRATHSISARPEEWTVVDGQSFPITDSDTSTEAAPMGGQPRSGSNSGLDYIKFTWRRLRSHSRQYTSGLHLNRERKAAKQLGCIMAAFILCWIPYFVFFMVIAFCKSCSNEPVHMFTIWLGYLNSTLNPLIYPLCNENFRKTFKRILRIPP

SMILES	CC50 at 72 h [1]	inhibition at 6.25 µg/mL [2]	MIC [3]	pKb [4]
CN1CC[C@H](N(Cc2ccccc2)c2ccccc2)CC1(C)C	69.5 µg/mL (≈ 225 µM)	31%	> 6.25 µg/mL	–
COc1ccc(N(Cc2ccccc2)[C@H]2CCN(C)C(C)(C)C2)cc1	82 µg/mL (≈ 242 µM)	26%	> 6.25 µg/mL	–
CC1(C)C[C@@H](N(Cc2ccccc2)c2ccccc2)CCN1c1ccccc1	108 µg/mL (≈ 291 µM)	91%	6.25 µg/mL (≈ 16.9 µM)	5
CN1CC[C@H](OC(c2ccccc2)c2ccccc2)CC1(C)C	–	–	–	8.19
c1ccc(CN(c2ccccc2)[C@H]2CCN(c3ccccc3)[C@@H](c3ccccc3)C2)cc1 (relative stereo)	> 28 µg/mL	37%	> 6.25 µg/mL	–
CC(C)[C@H]1C[C@@H](N(Cc2ccccc2)c2ccccc2)CCN1C (relative stereo)	35.9 µg/mL (≈ 111 µM)	66%	> 6.25 µg/mL	–
CC(C)[C@H]1C[C@@H](N(Cc2ccccc2)c2ccccc2)CCN1c1ccccc1 (relative stereo)	127 µg/mL (≈ 330 µM)	7%	> 6.25 µg/mL	–
c1ccc(CN(c2ccccc2)[C@H]2CCN(c3ccccc3)[C@H](c3ccccc3)C2)cc1 (relative stereo)	> 28 µg/mL	22%	> 6.25 µg/mL	–
CC(C)[C@@H]1C[C@@H](N(Cc2ccccc2)c2ccccc2)CCN1c1ccccc1 (relative stereo)	> 28 µg/mL	52%	> 6.25 µg/mL	–
CN1CCC(N(Cc2ccccc2)c2ccccc2)CC1 [BAMIPINE]	64.1 µg/mL (≈ 229 µM)	29%	> 6.25 µg/mL	–
NNC(=O)c1ccncc1 [ISONIAZID]	> 200 µg/mL	–	0.025 µg/mL (≈ 0.182 µM)	–
CO[C@H]1/C=C/O[C@@]2(C)Oc3c(C)c(O)c4c(O)c(c(/C=N/N5CCN(C)CC5)c(O)c4c3C2=O)NC(=O)/C(C)=C\C=C\[C@H](C)[C@H](O)[C@@H](C)[C@@H](O)[C@@H](C)[C@H](OC(C)=O)[C@@H]1C [RIFAMPIN]	> 200 µg/mL	–	0.06 µg/mL (≈ 0.0729 µM)	–
